“And” between values parts separate entries of the source, which are not always exact repeats. Equal values may be shown once. Read-outs that look alike come from different tables or passages of the source. One block for each compound: values may come before it.
Assays:
[1] = test system: HCT116 (colon cancer) cells; assay: MTT antiproliferative (cytotoxicity) assay, HCT116 cells; type: cell-based, Human; settings: mean (SD), triplicate, n.a. = not active at 100 μM, >100 = less than 60% inhibition at 100 μM
Protocol: (§1) The newly synthesized 1-Ph-DHPIQs, along with the previously reported derivatives 4a, 4c, 6a and 6c, with camptothecin and doxorubicin as positive controls, were tested at the maximum concentration of 100 μM for their antiproliferative activity, using an MTT assay on RD, HCT116, HeLa and A549 cancer cell lines. Compounds showing more than 50% inhibition were tested at lower scalar concentrations, and IC50 values were calculated by interpolation of the dose-response curves (Table 1). […]
(§2) The antiproliferative activity of the newly synthesized compounds, along with some previously reported analogs, and camptothecin and doxorubicin as positive controls was determined by the MTT (3-(4,5-dimethylthiazol-2-yl)-2,5-diphenyltetrazolium bromide) assay. The cells were seeded at a concentration of 1 × 10 ^4 cells/200 μL in a 96-well plate and cultured at 37 °C in a humidified atmosphere with 5% CO2. After 24 h of incubation, scalar concentrations of each test compound (100 to 1.56 μmol·L^−1) were added to the cancer cell culture and the cells were then cultured under the same conditions for 72 hr. Each concentration of the test compound was assayed in triplicate. […] Wells with the 0.1% v/v DMSO were used as controls. After incubation, 20 μL of MTT (5 mg·mL^−1) was added to each well and the plates were incubated for a further 2 h. Next, media were removed from the plates, and 100 μL of DMSO was added to each well to dissolve the formed formazan crystals. Using a flatbed analyzer (Victor^3, PerkinElmer, Waltham, MA, USA), the optical density was determined at 530 nm, minus the measured background absorbance at 620 nm. The concentration value, which causes 50% inhibition of cell population growth (IC50), was determined from the dose-dependent curves using the OriginPro 9.0 software.

[2] = Hydrolytic stability monitored by RP-HPLC; type: physicochemical; settings: 0.15 M KCl
Description: In particular, the transformation of the DHPIQ-2-aldehyde via Mannich reaction (8b,c) opens the road to future developments of new water-soluble antiproliferative DHPIQ derivatives endowed with the ability to inhibit P-gp and reverse MDR.

[3] = target: T1, human serum albumin (HSA) (Homo sapiens, UniProt P02768); assay: Binding affinity to immobilized HSA by surface plasmon resonance (SPR)
T1 sequence (P02768 25-609): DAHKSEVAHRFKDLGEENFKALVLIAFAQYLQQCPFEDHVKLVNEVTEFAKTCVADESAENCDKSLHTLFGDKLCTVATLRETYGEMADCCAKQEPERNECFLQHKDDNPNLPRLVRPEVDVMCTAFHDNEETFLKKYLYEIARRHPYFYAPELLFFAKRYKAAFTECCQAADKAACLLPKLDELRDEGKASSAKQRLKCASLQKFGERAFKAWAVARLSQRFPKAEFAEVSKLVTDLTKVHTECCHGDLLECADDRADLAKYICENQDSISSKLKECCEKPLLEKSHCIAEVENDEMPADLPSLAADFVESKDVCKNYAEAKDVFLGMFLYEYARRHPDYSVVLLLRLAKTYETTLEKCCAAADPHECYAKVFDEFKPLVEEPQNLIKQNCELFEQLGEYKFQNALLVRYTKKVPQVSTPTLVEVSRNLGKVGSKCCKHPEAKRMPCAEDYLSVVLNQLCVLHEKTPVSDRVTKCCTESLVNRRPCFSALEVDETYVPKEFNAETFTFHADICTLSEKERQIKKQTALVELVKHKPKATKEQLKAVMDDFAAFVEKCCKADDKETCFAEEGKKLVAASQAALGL
Protocol: (§3) By plotting the response at equilibrium, the dissociation constant (KD) value was determined for each test compound.
(§4) Fatty acid-free HSA (A3782 from Merck, KGaA Sigma-Aldrich, Darmstadt, Germany) was applied to functionalize the surface of a COOH V sensor chip (Pall FortèBio, Fremont Boulevard, CA, USA), by using amine coupling (EDC/NHS). HSA aqueous stock solution was diluted at the final concentration of 50 μg·mL^−1 in 10 mM sodium acetate buffer (pH 5.0), and immobilization in peripheral flow cells 1 and 3 (unmodified dextran surface in middle flow cell 2 used as a reference) at a final apparent level of about 5000 RU was achieved by applying the following protocol: injection of EDC/NHS (freshly mixed 0.4 M EDC and 0.1 M NHS) 1:1 v/v at a flow of 25 μL·min^−1 for 4 min; injection of HSA solution at a flow of 25 μL·min^−1 for 8 min; capping on unreacted activated carboxyl groups by injection of 1 M ethanolamine solution (pH 9) at a flow of 25 μL·min^−1 for 8 min. The functionalized surface was then treated with repeated injection of 4 M NaCl, as a regenerating reagent, and conditioned overnight prior to use with pH 7.4 PBS (10 mM NaH2PO4 and 150 mM NaCl) as a running buffer. Each cycle (without the need of regeneration) for binding assay to HSA was carried out in PBS/4% v/v DMSO and consisted of a run buffer injection (60 s), injection of analyte single concentration for 120 s (ranging from 1 to 200 μM) at a flow 20 μL·min^−1, and a dissociation phase for 150 s (flow 20 μL·min^−1). Each measurement was performed at least in triplicate and analyzed by using QDAT software, vers 2.2.0.7 (non-linear regression analysis of 1:1 stoichiometric reversible binding model), and double referencing.

[4] = Kinetic solubility in PBS by RP-HPLC; type: physicochemical; settings: phosphate buffered saline, 25 °C, kinetic from dmso stock
Protocol: Sample solution at 200 μM in PBS (50 mM, pH 7.4, KCl 0.15 M) from a 10 mM stock solution in DMSO was incubated at room temperature (25 ± 1 °C) for 2 h, following shaking of the suspension on an orbital shaker at 250 rpm, and then separated by […]. Immediately after the filtration step, 100 µL of filtrate was transferred into 100 µL of 1:1 (v/v) mixture of DMSO and PBS (50 mM, pH 7.4, KCl 0.15 M), to avoid precipitation from the saturated solution and analyzed by HPLC. The peak area was plotted against a calibration curve of the tested compound in MeOH [21]. Analytical conditions were as follows. Mobile Phase: MeOH/ammonium formate 20 mM pH 4.7 (70:30, 75:25); MeOH 0.1% TFA/H2O 0.1% TFA (70:30, 60:40); stationary phase: Phenomenex, Kinetex 5 μ, C18, 100 Å (150 × 4.6 mm); flux: 1 mL/min; injection: 10 μL, 265, 290, 320 nm wavelength. HPLC analyses were performed on an Agilent HPLC 1260 Infinity Series Integrated System (Agilent Technologies, Milan, Italy).

[5] = test system: RD (rhabdomyosarcoma) cells; assay: MTT antiproliferative (cytotoxicity) assay, RD cells; type: cell-based, Human; settings: 72 h, mean (SD), triplicate, n.a. = not active at 100 μM, >100 = less than 60% inhibition at 100 μM
Protocol: as §1, §2

[6] = Lipophilicity by RP-HPLC (polycratic capacity factor); type: physicochemical; settings: capacity factor extrapolated to 100% aqueous mobile phase, aqueous component pH 4.7
Protocol: To quantitate the effect of hydrophobicity on the biological activity of the examined compounds, a relative lipophilicity scale was determined by RP-HPLC [20]. The polycratic capacity factor (log k′w) for each compound in Table 2 was experimentally determined (details in the experimental section) and compared with 1-octanol–water partition coefficient calculated (Clog P) with ACDLabs software (release 10.0; Advanced Chemistry Development, Inc., Toronto, ON, Canada). Log k′w values are quite well correlated with Clog Ps for the whole series (r^2 = 0.791). However, omitting from the regression the two Mannich bases 8b and 8c, which, due to their basicity (pKas about 6.9, estimated by ACDLabs software), should be predominantly in the protonated forms at pH 4.7 (i.e., the pH of the aqueous component of the mobile phase in RP-HPLC), the correlation slightly improves (r^2 = 0.859), providing a linear equation with a slope equal to +0.8 and an intercept of about −0.1.
The lipophilicity parameters were determined by an RP-HPLC technique. Methanol solution of DHPIQ derivatives (1 mg/mL) were analyzed by an Agilent 1260 infinite HPLC system (Agilent Technologies, Milan, Italy) equipped with a diode array detector (DAD), and a Phenomenex, Kinetex 5 μ, C18, 100 Å (150 × 4.6 mm), and eluted with different percentage of mobile phase composition (0.05 increments of MeOH volume fractions in 20 mM ammonium formate buffer at pH 4.7 or water 0.1% v/v TFA, with φ ranging between 0.85 and 0.30). The chromatographic measurements were carried out at 25 ± 1 °C at a flow rate of 1 mL·min^−1 and at 265, 290, 320 nm wavelengths. The log of capacity factors (log k′ = log (tR − t0)/t0) of each compound at different mobile phase compositions was calculated; tR represents the retention time of the solute and t0 is the column dead time, measured as the elution time of a KNO3 solution in MeOH. For each compound, the log k′ values increased linearly with decreasing MeOH volume fraction. The logarithms of the capacity factor extrapolated to 100% aqueous mobile phase (log k′w) were calculated from the linear regressions on at least five data points (r^2 > 0.9984).

[7] = test system: A549 (lung adenocarcinoma) cells; assay: MTT antiproliferative (cytotoxicity) assay, A549 cells; type: cell-based, Human; settings: mean (SD), triplicate, n.a. = not active at 100 μM, >100 = less than 60% inhibition at 100 μM
Protocol: The antiproliferative activity of the newly synthesized compounds, along with some previously reported analogs, and camptothecin and doxorubicin as positive controls was determined by the MTT (3-(4,5-dimethylthiazol-2-yl)-2,5-diphenyltetrazolium bromide) assay. […] Each concentration of the test compound was assayed in triplicate. […] Wells with the 0.1% v/v DMSO were used as controls. After incubation, 20 μL of MTT (5 mg·mL^−1) was added to each well and the plates were incubated for a further 2 h. Next, media were removed from the plates, and 100 μL of DMSO was added to each well to dissolve the formed formazan crystals. Using a flatbed analyzer (Victor^3, PerkinElmer, Waltham, MA, USA), the optical density was determined at 530 nm, minus the measured background absorbance at 620 nm.

[8] = target: multidrug-resistance-associated protein-1 (MRP1) (Homo sapiens, UniProt P33527); assay: Calcein-AM transport inhibition in MDCK-MRP1 cells overexpressing MRP1
multidrug-resistance-associated protein-1 (MRP1), sequence (P33527 whole entry): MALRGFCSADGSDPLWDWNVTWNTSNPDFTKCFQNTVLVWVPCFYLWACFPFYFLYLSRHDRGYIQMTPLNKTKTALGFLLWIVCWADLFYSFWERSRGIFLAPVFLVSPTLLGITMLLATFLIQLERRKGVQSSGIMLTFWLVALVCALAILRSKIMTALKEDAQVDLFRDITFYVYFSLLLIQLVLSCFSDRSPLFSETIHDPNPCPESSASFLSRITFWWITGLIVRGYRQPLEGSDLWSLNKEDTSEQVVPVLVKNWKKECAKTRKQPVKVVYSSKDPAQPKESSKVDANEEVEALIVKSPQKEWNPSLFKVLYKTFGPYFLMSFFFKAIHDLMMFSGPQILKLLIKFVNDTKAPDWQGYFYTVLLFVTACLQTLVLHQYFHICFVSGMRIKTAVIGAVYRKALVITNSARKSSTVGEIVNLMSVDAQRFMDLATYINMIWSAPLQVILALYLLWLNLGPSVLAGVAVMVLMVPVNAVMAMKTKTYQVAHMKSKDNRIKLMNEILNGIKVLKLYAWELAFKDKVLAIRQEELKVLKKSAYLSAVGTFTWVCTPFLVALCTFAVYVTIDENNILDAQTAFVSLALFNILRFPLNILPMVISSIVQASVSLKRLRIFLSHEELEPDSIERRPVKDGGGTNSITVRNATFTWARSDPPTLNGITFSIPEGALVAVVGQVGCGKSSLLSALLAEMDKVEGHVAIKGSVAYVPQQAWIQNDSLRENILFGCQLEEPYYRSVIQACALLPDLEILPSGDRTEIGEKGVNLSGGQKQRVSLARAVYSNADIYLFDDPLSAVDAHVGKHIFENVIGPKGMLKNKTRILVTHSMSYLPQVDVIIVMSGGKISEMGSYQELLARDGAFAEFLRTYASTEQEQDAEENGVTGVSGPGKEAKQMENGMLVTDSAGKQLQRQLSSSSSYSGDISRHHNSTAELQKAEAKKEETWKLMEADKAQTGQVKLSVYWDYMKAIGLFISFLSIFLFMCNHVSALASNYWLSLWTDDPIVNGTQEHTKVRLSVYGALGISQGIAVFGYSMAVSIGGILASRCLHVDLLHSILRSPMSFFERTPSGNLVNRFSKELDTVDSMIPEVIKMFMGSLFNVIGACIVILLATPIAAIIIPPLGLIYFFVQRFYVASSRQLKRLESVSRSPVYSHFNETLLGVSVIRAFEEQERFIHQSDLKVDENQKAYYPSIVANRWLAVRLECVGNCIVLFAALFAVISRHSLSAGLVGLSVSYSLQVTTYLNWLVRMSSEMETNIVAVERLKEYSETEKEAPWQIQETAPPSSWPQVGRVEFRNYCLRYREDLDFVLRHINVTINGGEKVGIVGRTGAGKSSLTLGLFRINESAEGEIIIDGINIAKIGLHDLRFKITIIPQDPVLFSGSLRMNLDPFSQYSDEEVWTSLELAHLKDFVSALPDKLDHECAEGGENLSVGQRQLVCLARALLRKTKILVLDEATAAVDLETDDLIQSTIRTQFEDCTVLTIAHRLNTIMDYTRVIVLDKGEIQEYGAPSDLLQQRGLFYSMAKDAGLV
Protocol: (§5) The P-gp inhibitory potency of eight DHPIQs was evaluated by measuring the transport inhibition of calcein-AM, a profluorescent P-gp substrate, in the MDCK-MDR1 cell line overexpressing P-gp. Moreover, to evaluate the MRP1 inhibitor activity, the same compounds were screened in MDCK-MRP1 cells overexpressing MRP1.
(§6) According to previously described assays [9], MDCK-MDR1 and MDCK-MRP1 cell lines (50,000 cells per well) were seeded into a black CulturePlate 96-well plate with 100 μL medium and allowed to become confluent overnight. […] Saline buffer (100 μL) was added to each well, and the plate was read by a PerkinElmer Victor3 spectrofluorimeter at excitation and emission wavelengths of 485 nm and 535 nm, respectively. In these experimental conditions, calcein cell accumulation in the absence and in the presence of the test compound was evaluated, and the fluorescence basal level was estimated by untreated cells. In the treated wells, the increase of fluorescence with respect to basal level was measured. IC50 values were determined by interpolating the curve of fluorescence increase percentage versus log [conc.].

[9] = test system: HeLa (adenocarcinoma of the cervix uterus) cells; assay: MTT antiproliferative (cytotoxicity) assay, HeLa cells; type: cell-based, Human; settings: 72 h, mean (SD), triplicate, n.a. = not active at 100 μM, >100 = less than 60% inhibition at 100 μM
Protocol: as §1, §2

[10] = target: T1, human serum albumin (HSA); settings: 10 μM, pH 7.4
Protocol: as §3, §4

[11] = target: P-gp versus MRP1 (Homo sapiens, UniProt P08183); assay: Calcein-AM transport inhibition in MDCK-MDR1 cells overexpressing P-gp; settings: human, MDCK-MDR1 cells and MDCK-MRP1 cells, probe calcein-AM
P-gp versus MRP1, sequence (P08183 whole entry): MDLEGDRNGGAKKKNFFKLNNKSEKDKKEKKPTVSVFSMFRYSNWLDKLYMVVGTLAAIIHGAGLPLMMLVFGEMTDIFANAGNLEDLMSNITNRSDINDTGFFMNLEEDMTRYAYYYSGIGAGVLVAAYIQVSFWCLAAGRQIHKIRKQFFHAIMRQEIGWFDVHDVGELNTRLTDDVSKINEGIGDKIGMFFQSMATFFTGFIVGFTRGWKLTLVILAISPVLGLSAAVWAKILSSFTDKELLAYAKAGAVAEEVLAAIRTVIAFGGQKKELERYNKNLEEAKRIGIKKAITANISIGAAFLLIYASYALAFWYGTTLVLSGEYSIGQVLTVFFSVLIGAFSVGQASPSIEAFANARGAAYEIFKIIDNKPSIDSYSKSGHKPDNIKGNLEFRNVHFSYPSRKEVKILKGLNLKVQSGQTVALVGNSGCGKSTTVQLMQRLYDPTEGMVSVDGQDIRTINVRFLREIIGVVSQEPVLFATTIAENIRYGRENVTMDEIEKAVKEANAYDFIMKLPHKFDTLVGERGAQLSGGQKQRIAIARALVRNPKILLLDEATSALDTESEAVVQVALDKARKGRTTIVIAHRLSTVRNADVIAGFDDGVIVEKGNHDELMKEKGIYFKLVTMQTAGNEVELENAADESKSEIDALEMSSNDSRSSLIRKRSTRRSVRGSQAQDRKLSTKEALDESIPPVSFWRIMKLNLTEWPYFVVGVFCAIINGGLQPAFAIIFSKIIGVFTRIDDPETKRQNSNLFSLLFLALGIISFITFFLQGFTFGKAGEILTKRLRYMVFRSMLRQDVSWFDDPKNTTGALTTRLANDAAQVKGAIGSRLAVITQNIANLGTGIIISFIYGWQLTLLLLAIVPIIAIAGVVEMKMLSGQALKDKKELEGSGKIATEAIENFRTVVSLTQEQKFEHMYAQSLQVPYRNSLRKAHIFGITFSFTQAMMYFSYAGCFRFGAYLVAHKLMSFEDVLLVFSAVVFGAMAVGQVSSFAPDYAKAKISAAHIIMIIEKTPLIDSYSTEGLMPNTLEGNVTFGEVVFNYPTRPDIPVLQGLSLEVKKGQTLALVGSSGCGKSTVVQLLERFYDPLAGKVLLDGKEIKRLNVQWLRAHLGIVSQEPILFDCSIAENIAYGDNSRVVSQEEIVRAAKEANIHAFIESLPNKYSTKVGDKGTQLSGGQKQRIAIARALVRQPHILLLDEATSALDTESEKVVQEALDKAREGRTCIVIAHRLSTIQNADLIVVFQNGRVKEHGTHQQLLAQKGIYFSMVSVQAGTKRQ
Protocol: as §5, §6

[12] = target: T2, P-glycoprotein (P-gp) (Homo sapiens, UniProt P08183); assay: as above; settings: for IC50: P-gp, IC50, MDCK-MDR1 cells, calcein-AM, mean (SD), at least two independent experiments in triplicate
T2 sequence (P08183 whole entry): as above
Protocol: as §5, §6

[13] = test system: RD (rhabdomyosarcoma) cells; settings: mean (SD), cited from earlier work
[14] = test system: HCT116 (colon cancer) cells; settings: mean (SD), cited from earlier work
[15] = test system: HeLa (adenocarcinoma of the cervix uterus) cells; settings: mean (SD), cited from earlier work
[16] = test system: A549 (lung adenocarcinoma) cells; settings: mean (SD), cited from earlier work
[17] = target: T2, P-glycoprotein (P-gp); set-up: expressed in transfected cells; host or cells: MDCK-MDR1 (gift from Prof. P. Borst, NKI-AVL); method as in PMID 29802687; settings: MDCK-MDR1 cells; ref [9]; cited from earlier work
[18] = aqueous buffer, PBS (50 mM, pH 7.4, 0.15 M KCl) at 25 ± 1 °C, read-out: S (solubility)

Hydrolytic stability at pH 2 ([2]; 0.01 M HClaq, pH 2, 25 °C): stable
Hydrolytic stability at pH 7.4 ([2]; 50 mM PBS, pH 7.4, 25 °C): stable
Kd [3]: 26.9 µM
solubility at 2 h [4, 18]: 41.7 µM
solubility at 2 h ([4]; pH 7.4, aqueous buffer, ‘practically insoluble’ threshold of US and European Pharmacopoeia, read-out: Solubility category in buffered water solution at neutral pH): < 100 µg/mL
Log k′w [6]: 4.31
IC50 [8]: 12.1 µM
Predicted fraction bound to HSA [10]: less than 40%
IC50 [12]: < 0.5 µM and 0.45 µM
Compound: CCOc1ccc(-c2c(CN3CCOCC3)cn3c2-c2cc(OCC)c(OCC)cc2CC3)cc1OCC [Compound 8c, 1-(3,4-Diethoxyphenyl)-8,9-diethoxy-2-(morpholin-4-ylmethyl)-5,6-dihydropyrrolo[2,1-a]isoquinoline]
IC50 ([1]; 72 h): 15.7 µM
IC50 ([1]; Homo sapiens, HCT-116, 72 h): < 21 µM
IC50 [5]: < 20 µM and 18.6 µM
IC50 ([5]; Homo sapiens, Rhabdomyosarcoma cell): < 21 µM
IC50 ([7]; 72 h): 20.8 µM
IC50 ([7]; Homo sapiens, A549, 72 h): < 21 µM
IC50 [9]: 17.5 µM
IC50 ([9]; Homo sapiens, HeLa): < 21 µM
selectivity ratio [11]: ~30

Compound: CCOc1ccc(-c2c(C=O)cn3c2-c2cc(OCC)c(OCC)cc2CC3)cc1OCC [Compound 4c]
IC50 ([13]; ref [8]): 21.3 µM
IC50 ([14]; ref [8]): 11.8 µM
IC50 ([15]; ref [8]): 44.5 µM
IC50 ([16]; ref [8]): 19.7 µM
IC50 [17]: < 0.5 µM

Compound: COc1cc2c(cc1OC)-c1c(-c3ccc(Cl)cc3)c(C=O)cn1CC2 [Compound 4a]
IC50 ([13]; ref [5]): 17.6 µM
Kd [3]: 1.6 µM
solubility at 2 h [4, 18]: 6.66 µM
IC50 ([14]; ref [5]): 22 µM
Log k′w [6]: 4.32
IC50 [8]: 21.9 µM
IC50 ([15]; ref [5]): 33 µM
IC50 ([16]; ref [5]): 38.6 µM
IC50 [12]: 25.3 µM
P-gp/MRP1 selectivity (toward P-gp) ([12]; ratio of MRP1 and P-gp inhibition potency): unselective
